Counter-ions that a name gives are not always drawn. Like-named read-outs stand apart in the source and are kept apart here.
Key:
[1] = Storage stability of mouth rinse formulation B8: potency of the actives by HPLC; format: physicochemical
Excerpt: (§1) Quantification of the respective ingredients was done using high performance liquid chromatography (HPLC). A difference in calculated quantity of less than 5% from the intial formulation (i.e. time=0) amount was considered a “pass”, that is, indicative of minimal degradation. The relative standard deviation for the HPLC calculations was 3%.

[2] = Storage stability of formulation B8: preservative assay by HPLC; format: physicochemical
Excerpt: as §1

[3] = in H2O, cited from earlier work
[4] = formulation B8, 2 months at 40° C.
[5] = formulation B8, 2 months at 40° C., 90 to 110% of label claim, less than 5% change
[6] = formulation B8, 2 months at room temperature
[7] = formulation B8, 2 months at room temperature, 90 to 110% of label claim, less than 5% change
[8] = formulation B8, 3 months at 40° C.
[9] = formulation B8, 3 months at 40° C., 90 to 110% of label claim, less than 5% change
[10] = formulation B8, 3 months at room temperature
[11] = formulation B8, 3 months at room temperature, 90 to 110% of label claim, less than 5% change
[12] = formulation B8, 4 months at 40° C.
[13] = formulation B8, 4 months at 40° C., 90 to 110% of label claim, less than 5% change
[14] = formulation B8, 4 months at room temperature, 90 to 110% of label claim, less than 5% change
[15] = formulation B8, 12 months at fridge 4° C.
[16] = formulation B8, 12 months at fridge 4° C., 90 to 110% of label claim, less than 5% change
[17] = formulation B8, 12 months at room temperature
[18] = formulation B8, 12 months at room temperature, 90 to 110% of label claim, less than 5% change
[19] = formulation B8, time = 0, limits 90 to 110% of label claim

Preservative assay [2, 4]	Preservative assay [2, 6]	Preservative assay [2, 8]	SMILES	Potency (of label claim) [1, 4]	Potency Pass/fail [1, 5]	Potency (of label claim) [1, 6]	Potency Pass/fail [1, 7]	Potency (of label claim) [1, 8]	Potency Pass/fail [1, 9]	Potency (of label claim) [1, 10]	Potency Pass/fail [1, 11]	Potency (of label claim) [1, 12]	Potency Pass/fail [1, 13]	Potency Pass/fail [1, 14]	Potency (of label claim) [1, 15]	Potency Pass/fail [1, 16]	Potency (of label claim) [1, 17]	Potency Pass/fail [1, 18]	Potency (of label claim) ([1]; formulation B8, time = 0)	Potency Pass/fail [1, 19]	other results
–	–	–	CCN(CC)CC(=O)Nc1c(C)cccc1C [Lidocaine HCl]	98.1%	Pass (A difference in calculated quantity of less than 5% from the intial formulation (i.e. time=0) amount was considered a “pass”)	99.7%	Pass (A difference in calculated quantity of less than 5% from the intial formulation (i.e. time=0) amount was considered a “pass”)	102.15%	Pass (A difference in calculated quantity of less than 5% from the intial formulation (i.e. time=0) amount was considered a “pass”)	101.8%	Pass (A difference in calculated quantity of less than 5% from the intial formulation (i.e. time=0) amount was considered a “pass”)	102.9%	Pass (A difference in calculated quantity of less than 5% from the intial formulation (i.e. time=0) amount was considered a “pass”)	Pass (A difference in calculated quantity of less than 5% from the intial formulation (i.e. time=0) amount was considered a “pass”)	101.4%	Pass (A difference in calculated quantity of less than 5% from the intial formulation (i.e. time=0) amount was considered a “pass”)	101.4%	Pass (A difference in calculated quantity of less than 5% from the intial formulation (i.e. time=0) amount was considered a “pass”)	100.4%	Pass (A difference in calculated quantity of less than 5% from the intial formulation (i.e. time=0) amount was considered a “pass”)	–
95%	97.6%	95.7%	COC(=O)c1ccc(O)cc1 [Methyl paraben]	–	–	–	–	–	–	–	–	–	–	–	–	–	–	–	–	–	Preservative assay [2, 10]: 100.1%; Preservative assay [2, 12]: 97.1%; Preservative assay [2, 17]: Methyl P - 98.2%; Preservative assay ([2]; formulation B8, time = 0): paraben: 100.8%
–	–	–	CN(C)CCOC(c1ccccc1)c1ccccc1 [Diphenhydramine HCl]	100.2%	Pass (A difference in calculated quantity of less than 5% from the intial formulation (i.e. time=0) amount was considered a “pass”)	100.8%	Pass (A difference in calculated quantity of less than 5% from the intial formulation (i.e. time=0) amount was considered a “pass”)	101.7%	Pass (A difference in calculated quantity of less than 5% from the intial formulation (i.e. time=0) amount was considered a “pass”)	101.85%	Pass (A difference in calculated quantity of less than 5% from the intial formulation (i.e. time=0) amount was considered a “pass”)	100.1%	Pass (A difference in calculated quantity of less than 5% from the intial formulation (i.e. time=0) amount was considered a “pass”)	Pass (A difference in calculated quantity of less than 5% from the intial formulation (i.e. time=0) amount was considered a “pass”)	102.4%	Pass (A difference in calculated quantity of less than 5% from the intial formulation (i.e. time=0) amount was considered a “pass”)	103.0%	Pass (A difference in calculated quantity of less than 5% from the intial formulation (i.e. time=0) amount was considered a “pass”)	100.6%	Pass (A difference in calculated quantity of less than 5% from the intial formulation (i.e. time=0) amount was considered a “pass”)	–
99.1%	99.3%	99.4%	CCCOC(=O)c1ccc(O)cc1 [Propyl paraben]	–	–	–	–	–	–	–	–	–	–	–	–	–	–	–	–	–	Preservative assay [2, 10]: 100.4%; Preservative assay [2, 12]: 99.2%; Preservative assay [2, 17]: Propul P - 99.1%; Preservative assay ([2]; formulation B8, time = 0): paraben: 99.1%
–	–	–	C[C@@H]1C[C@H]2[C@@H]3CCC4=CC(=O)C=C[C@]4(C)[C@@]3(F)[C@@H](O)C[C@]2(C)[C@@]1(O)C(=O)COP(=O)(O)O [Dexamethasone sodium phosphate, Dexamethasone 21-phosphate disodium salt]	–	–	–	–	–	–	–	–	–	–	–	–	–	–	–	–	–	Solubility (Notes) ([3]; in words): H2O soluble
–	–	–	C[C@@H]1[C@H](O)[C@@H](C)/C=C/C=C/CC/C=C/C=C/C=C/C=C/C(O[C@H]2O[C@H](C)[C@@H](O)[C@H](N)[C@@H]2O)CC2O[C@](O)(CC(O)C(O)CCC(O)CC(O)CC(O)CC(=O)O[C@H]1C)CC(O)C2C(=O)O (stereo partly drawn) [Nystatin]	98.4%	Fail	106.8%	Pass (A difference in calculated quantity of less than 5% from the intial formulation (i.e. time=0) amount was considered a “pass”)	88.8%	Fail	106%	Pass (A difference in calculated quantity of less than 5% from the intial formulation (i.e. time=0) amount was considered a “pass”)	92.4%	Fail	Pass (A difference in calculated quantity of less than 5% from the intial formulation (i.e. time=0) amount was considered a “pass”)	101.7%	Pass (A difference in calculated quantity of less than 5% from the intial formulation (i.e. time=0) amount was considered a “pass”)	109.6%	Pass (A difference in calculated quantity of less than 5% from the intial formulation (i.e. time=0) amount was considered a “pass”)	108.5%	Pass (A difference in calculated quantity of less than 5% from the intial formulation (i.e. time=0) amount was considered a “pass”)	Solubility (Notes) ([3]; in words): slightly soluble-; Solubility (Notes) [3]: 4 mg/ml in H2O; Potency (of label claim) ([1]; formulation B8, 4 months at room temperature): 105.3%

From patent US20100190735A1, “Mouthwash and Method of Using Same for the Treatment of Mucositis or Stomatitis” (priority 2006, published 2010)
